{"source": "patent US8993559B2", "about": "“Use of ibogamine congeners for treating obesity” (Albany Medical College, priority 2008, dated 2015)", "key": {"rats [1]": {"tested_on": "rats", "assay": "Drug self-administration and water-reinforced responding in rats (earlier studies)", "format": "in vivo, rat", "procedure": "Other work has extended the “anti-addictive” effect of 18-MC to oral intake of ethanol. In all cases, these effects last for at least 24 hours. […] Unlike 18-MC, ibogaine and many other iboga alkaloid congeners (approximately 30 tested) decrease responding for water as well as for drugs. And it was precisely this unique specificity that led to development and study of 18-MC."}, "α3β4 nicotinic receptors": {"target": "α3β4 nicotinic receptors (Homo sapiens, UniProt P30926+P32297)", "sequence (P32297 32-505)": "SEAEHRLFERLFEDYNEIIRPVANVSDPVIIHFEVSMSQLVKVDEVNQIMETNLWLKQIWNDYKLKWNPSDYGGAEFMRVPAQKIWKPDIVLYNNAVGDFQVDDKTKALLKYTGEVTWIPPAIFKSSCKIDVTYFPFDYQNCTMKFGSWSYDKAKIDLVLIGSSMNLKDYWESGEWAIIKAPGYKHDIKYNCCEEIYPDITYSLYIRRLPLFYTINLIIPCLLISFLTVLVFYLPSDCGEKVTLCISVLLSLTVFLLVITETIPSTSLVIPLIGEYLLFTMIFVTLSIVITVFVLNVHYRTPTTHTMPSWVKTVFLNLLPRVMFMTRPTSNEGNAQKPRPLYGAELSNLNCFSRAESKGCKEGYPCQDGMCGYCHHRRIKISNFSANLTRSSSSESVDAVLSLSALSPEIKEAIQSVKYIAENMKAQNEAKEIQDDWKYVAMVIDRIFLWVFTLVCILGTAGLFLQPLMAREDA", "sequence (P30926 22-498)": "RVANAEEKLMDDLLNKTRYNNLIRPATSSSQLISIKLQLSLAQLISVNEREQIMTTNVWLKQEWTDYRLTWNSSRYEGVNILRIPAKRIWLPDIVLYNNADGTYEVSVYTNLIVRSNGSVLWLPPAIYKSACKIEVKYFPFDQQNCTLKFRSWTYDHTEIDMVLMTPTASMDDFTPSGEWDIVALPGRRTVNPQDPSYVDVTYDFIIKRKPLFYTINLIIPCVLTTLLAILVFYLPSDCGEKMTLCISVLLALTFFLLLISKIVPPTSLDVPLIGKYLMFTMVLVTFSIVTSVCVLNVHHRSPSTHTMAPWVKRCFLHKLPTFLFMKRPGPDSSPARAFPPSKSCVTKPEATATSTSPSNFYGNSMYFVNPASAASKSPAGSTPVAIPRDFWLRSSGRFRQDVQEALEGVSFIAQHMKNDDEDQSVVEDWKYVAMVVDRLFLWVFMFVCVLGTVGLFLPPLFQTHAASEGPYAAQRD", "conditions": "cited from earlier work"}, "Sprague-Dawley rats": {"tested_on": "Sprague-Dawley rats", "assay": "Operant sucrose self-administration procedure", "format": "in vivo, rat", "procedure": "Naïve female Sprague-Dawley rats (230-270 g; Taconic, Germantown, N.Y.) were housed individually and maintained on a normal 12 hr light cycle (light on/off at 7 a.m./7 p.m.) in the colony room. For all experiments, food (normal chow) and water were provided ad libitum. The experiments were conducted in accordance with the “Guide for the Care and Use of Laboratory Animals” (National Academy of Sciences, 1996).\nRats were water deprived for 23 h so that shaping of the bar-press response could initially be accomplished by training rats to bar-press for water. Thereafter, in non-deprived rats, oral sucrose self-administration testing began with a 16-h nocturnal session followed by daily 1-h sessions, 5 days (Monday-Friday) a week. Rats were allowed access to two levers mounted 15 cm apart on the front wall of each operant test chamber (Coulbourn Instruments, Allentown, Pa.). A response on either of the two levers produced a sucrose reward (15% solution; 0.01 ml) on a FR1 TO 20 (fixed ratio 1 with a 20 sec time-out) schedule. After rates of sucrose self-administration stabilized (20% variation from one day to the next across 5 days), usually after 2 weeks of testing, 18-MC (10-40 mg/kg) or vehicle was administered i.p. 15 minutes before a test session. Each rat typically received two or three different treatments (in randomized order) spaced at least one week apart.\nThe operant self-administration data were analyzed by two-way ANOVA with reward (sucrose vs. water) and dose of 18-MC as the main factors. Subsequent post hoc tests (Newman-Keuls) compared the effects of 18-MC to baseline."}, "rats [2]": {"tested_on": "rats", "assay": "Local administration of 18-MC into brain sites: drug self-administration and responding for sucrose", "format": "in vivo, rat", "description": "FIG. 8 is a graph showing effects of local infusion of 18-MC into the basolateral amygdala on methamphetamine self-administration and responding for sucrose. Baseline methamphetamine infusions averaged (S.E.M.) 20.2±0.9 while baseline responding for sucrose averaged (S.E.M.) 27.1±2.1. Each data point represents the mean (S.E.M.) percent of baseline of 6-9 rats. (*=p<0.05-0.01).\nAlthough the medial habenula and the interpeduncular nucleus are the brain regions having the highest concentrations of α3β4 nicotinic receptors, moderate densities of these receptors are localized in the ventral tegmental area, in the basolateral amygdala, and in the dorsolateral tegmentum (caudal pedunculopontine and laterodorsal tegmental nuclei). […] The basolateral amygdala has also been very much implicated in reward-related phenomena, and associated with both stimulants and sucrose. Accordingly, to further investigate brain sites mediating 18-MC's effects on drug self-administration, it was determined if local administration of 18-MC into the dorsolateral tegmentum or basolateral amygdala would alter drug self-administration, the other three sites having already been examined. As done previously, sucrose (15%) was used as a control, non-drug reinforcer. Previously, local administration of 18-MC had no effect on responding for sucrose regardless of whether it was infused into the medial habenula, interpeduncular nucleus, or ventral tegmental area. […] The neural substrates for 18-MC's effects on morphine and sucrose self-administration clearly appear to be different, although both may involve α3β4 nicotinic receptors."}, "rats [3]": {"tested_on": "rats", "conditions": "systemic pretreatment; cited from earlier work"}}, "note": "“Also recorded” adds a separate entry of the source."}
{"smiles": "COCC[C@H]1CC2CN3CCc4c([nH]c5ccccc45)[C@](C(=O)OC)(C2)[C@H]13", "note": "[18-MC, 18-methoxycoronaridine]", "values": [{"measurement": "decrease of drug self-administration", "setting": "rats [1]; 20 mg/kg, i.p., depending on the drug", "value": "40-80%"}, {"measurement": "motor effects", "setting": "rats [1]; at times when self-administration is decreased", "value": "no motor effects"}, {"measurement": "duration of effects on drug self-administration", "setting": "rats [1]; rat, in vivo", "value": "at least 24 hours"}, {"measurement": "effect on oral intake of ethanol", "setting": "rats [1]; rat, in vivo, po", "value": "anti-addictive"}, {"measurement": "cocaine, methamphetamine and nicotine self-administration", "setting": "rats [1]; rats", "value": "decreases"}, {"measurement": "morphine self-administration", "setting": "rats [1]; rats", "value": "dose-dependently decreases"}, {"measurement": "responding for water (non-drug reinforcer)", "setting": "rats [1]; same doses that decrease drug self-administration", "value": "do not affect"}, {"measurement": "action at α3β4 nicotinic receptors", "setting": "α3β4 nicotinic receptors", "value": "selective antagonist; also recorded: noncompetitive antagonist"}, {"measurement": "effect on sucrose responding", "setting": "Sprague-Dawley rats; 18-MC 20 mg/kg i.p., 10, 15 and 20% sucrose", "value": "no significant effect"}, {"measurement": "decrease of sucrose responding", "setting": "Sprague-Dawley rats; 18-MC 20 mg/kg i.p., not significant", "value": "10-20%"}, {"measurement": "operant responding for sucrose", "setting": "Sprague-Dawley rats; 18-MC 40 mg/kg i.p., 15 min before 1-h session, 15% sucrose", "value": "reduced; also recorded: decreased"}, {"measurement": "operant responding for water", "setting": "Sprague-Dawley rats; 18-MC up to 40 mg/kg i.p., water 0.01 ml/barpress", "value": "no effect"}, {"measurement": "responding for sucrose", "setting": "rats [2]; infused into the medial habenula, interpeduncular nucleus, or ventral tegmental area (previous work)", "value": "no effect"}, {"measurement": "methamphetamine self-administration", "setting": "rats [2]; local administration into the basolateral amygdala", "value": "decreased"}, {"measurement": "responding for sucrose", "setting": "rats [2]; local administration into the basolateral amygdala, 15% sucrose", "value": "decreased"}, {"measurement": "morphine or methamphetamine self-administration", "setting": "rats [2]; local administration into the dorsolateral tegmentum", "value": "no effect"}, {"measurement": "responding for sucrose", "setting": "rats [2]; local administration into the dorsolateral tegmentum, 15% sucrose", "value": "decreased"}, {"measurement": "intravenous self-administration of morphine and other drugs", "setting": "rats [3]", "value": "reduce"}]}
